Two molecules from patent US20160361250A1, “ACTIVE INGREDIENTS STIMULATING TYPE 2 AND/OR TYPE 3 HUMAN BETA-DEFENSINS AND COSMETIC OR PHARMACEUTICAL COMPOSITIONS CONTAINING SUCH ACTIVE INGREDIENTS” (BASF Beauty Care Solutions France S.A.S., priority 2002, published 2016) can be followed below.

In data set [1] the test system is hBD2. Put plainly: Qualitative RT-PCR of hBD2 expression, 1st step of the screening method. Conditions: 100 μg/mL; normal human keratinocytes, 16 h. The class given is cell-based. As to the method: (§1) A 1% concentration of the actives is tested on normal human keratinocytes, as a monolayer, on 96-well culture plates, in a specific medium enriched with calcium and free of serum (final concentration 1.7 mM).
(§2) At 80% confluence, cells are contacted with the actives (1 active per well) for 16 h. An untreated control and 2 positive controls (TNFα 100 ng/mL for hBD2 and IFNγ 100 ng/mL for hBD3) are set up in parallel on the same culture plate.
(§3) After 16 h, the supernatants are collected and cells are dry frozen at −80° C. after rinsing in PBS.
(§4) Total RNA are extracted using a 96-well extraction kit on silica columns and assayed using a 96-well spectrophotometer at 260 and 280 nm. RNA are diluted to 5 ng/mL.
(§5) Qualitative one-step RT-PCR is performed on 50 ng of initial RNA in 96 wells, on actin, hBD2 and hBD3. The primers are used at a concentration of 0.5 μM and arc taken from the literature:—hBD2: sense: 5′-[…]-3′; hBD2 antisense 5′-[…]-3′ (Harder J. et al., A peptide antibiotic from human skin. Nature 1997; 387 : 861); hBD3 sense: 5′-[…]-3′; hBD3 antisense: 5′-[…]-3′; actin sense: 5′-[…]-3′; actin antisense: 5′-[…]-3′ (Harder J. et al., Isolation and characterization of human β-defensin-3, a novel human inducible peptide antibiotic. J Biol Chem 2001, 276 : 5707-5713).
(§6) Samples are placed in a thermocycler and follow a common amplification program: 50° C., 30 min; 94° C., 2 min, (94° C., 30 s; 60° C., 30 s; 68° C., 30 s), 32 cycles for the defensins and 30 cycles for actin; 72° C., 10 min; 14° C., infinite.
(§7) After amplification, the products are mixed at a rate of 3 μL of actin amplification products+6 μL of hBD2 amplification products+6 μL of hBD3 amplification products. 5 μL of a mixture of charge buffer and water (⅔) are added and the final 20 μL are deposited on 2% premoulded agarose gel. The samples migrate in 30 minutes and the bands are visualised under UV in a dark room then digitally photographed.
(§8) Photos of the gels are analysed by image processing software which quantifies the intensity of the bands. As the basal level of defensin expression (untreated control) is not detectable, the intensity ratios of the hBD2/actin and hBD3/actin bands can be compared, for example with those obtained for the positive control (treated with TNFα for hBD2 and IFNγ for hBD3) and indicate any stimulation of the expression of the β-defensin in question
(§9) Since the basal level of defensin expression is generally not detectable, stimulation of hBD2 and hBD3 is expressed as a percentage of the positive controls (TNFα for hBD2 and IFNγ for hBD3). IL8 and MIP3α levels are given as pg/mL/RNA concentration (in ng/μL).

For data set [2], the system named is hBD3. Nature of the data set: Qualitative RT-PCR of hBD3 expression, 1st step of the screening method. It counts as cell-based. Conditions: 100 μg/mL; normal human keratinocytes, 16 h. As to the method:
as §2, §3, §4, §5, §6, §7, §8, §9

Data set [3] has as its system hBD2. Nature of the data set: Quantitative RT-PCR of hBD2 expression, 2nd step (dose-effect). The class given is cell-based, human. Conditions: for hBD2 expression, percentage of the control: 16 h, untreated control = 100%. The method, then:
(§10) The actives are then tested on 5 concentrations (from 0.001% to max viability) in quadruplicate on normal human keratinocytes as a monolayer on 96-well culture plates, in a specific medium enriched with calcium and free of serum (CaCl2 1.7 mM) (same conditions as in example 1).
as §3
(§11) Total RNA are extracted using a 96-well extraction kit on silica columns and assayed using a 96-well spectrophotometer at 260 and 280 nm. RNA are diluted to 5 ng/μL.
(§12) Quantitative RT-PCR in 96 wells on actin, hBD2 and hBD3 is initially carried out on 50 ng of RNA, using a one-step kit containing Sybrgreen, in a fluorescence thermocycler with the same primers as previously (0.5 μM). The amplification program is as follows: 50° C., 30 min; 94° C., 15 min; (94° C., 15 s; 60° C., 30 s; 72° C., 30 s)×50 cycles; 90° C., 1 min; 30° C., 1 min; 50° C. to 95° C. (10 s every ° C.); 14° C., infinite.
(§13) A study of the fusion graphs makes it possible to verify the specificity of amplified products. The fluorescence graph as a function of the number of cycles gives the C(T) value corresponding to the number of cycles needed to obtain initiation of the fluorescence signal. The more an mRNA is expressed, the lower the C(T) value. Calculation of Sgene=(½)^C(T) for each RNA takes into consideration the exponential increase in the number of copies during amplification. The Sgene hBD2/Sgene actin and Sgene hBD3/Sgene actin ratios can be compared with those of the untreated control to give the percentage stimulation produced.
(§14) Quantitative RT-PCR makes it possible to obtain a basal value for the defensin expression for untreated controls. The results are therefore expressed as a percentage of the control. IL8, IL1 and MIP3 cytokine levels are given as pg/mL/RNA concentration (in ng/μL).
(§15) In the same way as in example 2, retinoic acid and retinol were tested for their capacity to stimulate hBD2 and/or hBD3.

Data set [4] relates to IL1α. Put plainly: ELISA of IL1α in supernatants, 2nd step. It counts as cell-based, human. The note with it: supernatant, 16 h. The method, then:
(§16) The supernatants of the actives, whose capacity to induce defensins has been confirmed, are tested using an ELISA kit in order to assay MIP3α, IL8 and IL1α levels. These assays are performed on the same supernatant (200 μL) by carrying out a series dilution (by 1.5 to assay MIP3α and IL8, then by 2 to assay IL1). The levels are then referred to the RNA concentration assayed in each well in order to compare results with each other.
as §14

The subject of data set [5] is IL8. Put plainly: ELISA of IL8 in supernatants, 2nd step. It counts as cell-based, human. Conditions: supernatant, 16 h. The method, then: as §16, §14
Data set [6] deals with MIP3α. Nature of the data set: ELISA of MIP3α in supernatants, 2nd step. The class given is cell-based, human. The note with it: supernatant, 16 h. As to the method:
as §16, §14

Data set [7] deals with hBD2 and/or hBD3. Nature of the data set: 1st step of the screening method, overall outcome (defensin RT-PCR plus MIP3α/IL8 ELISA). It counts as cell-based, human. The note with it: concentrations of Tables I and II. As to the method: as §1, §2, §3, §4
Qualitative one-step RT-PCR is performed on 50 ng of initial RNA in 96 wells, on actin, hBD2 and hBD3. The primers are used at a concentration of 0.5 μM and arc taken from the literature:—hBD2: sense: 5′-[…]-3′; hBD2 antisense 5′-[…]-3′ (Harder J. et al., A peptide antibiotic from human skin. Nature 1997; 387 : 861); hBD3 sense: 5′-[…]-3′; hBD3 antisense: 5′-[…]-3′; actin sense: 5′-[…]-3′; actin antisense: 5′-[…]-3′ (Harder J. et al., Isolation and characterization of human β-defensin-3, a novel human inducible peptide antibiotic. J Biol Chem 2001, 276 : 5707-5713). […]
Photos of the gels are analysed by image processing software which quantifies the intensity of the bands. […]

The test system of data set [8] is IL8. Nature of the data set: ELISA of IL8 secreted into the culture medium, 1st step. The class given is cell-based, human. Conditions: 100 μg/mL; keratinocyte supernatant, 16 h. As to the method:
(§17) At the end of this first step, the actives having exerted an effect on β-defensin expression are selected and the supernatants corresponding to these actives are then tested using an ELISA kit in order to determine the levels of MIP3α, IL1 and IL8 secreted into the culture medium under the effect of the actives. The levels are then referred to the RNA concentration assayed in each well in order to compare results with each other.
as §9

Data set [9] relates to hBD3. Nature of the data set: Quantitative RT-PCR of hBD3 expression, 2nd step (dose-effect). It counts as cell-based, human. Conditions: for hBD3 expression, percentage of the control: 16 h, untreated control = 100%. As to the method: as §10, §3, §11, §12, §13, §14, §15
In data set [10] the test system is MIP3α. Nature of the data set: ELISA of MIP3α secreted into the culture medium, 1st step. Conditions: 100 μg/mL; keratinocyte supernatant, 16 h. The class given is cell-based, human. As to the method:
as §17, §9

The subject of data set [11] is hBD2 and/or hBD3. Nature of the data set: 2nd step of the screening method, overall outcome (quantitative RT-PCR plus MIP3α/IL8/IL1α ELISA). The class given is cell-based, human. As to the method:
The actives which best satisfied the criteria for the first step undergo a dose-effect analysis.
as §10, §3, §11, §12, §13
The supernatants of the actives, whose capacity to induce defensins has been confirmed, are tested using an ELISA kit in order to assay MIP3α, IL8 and IL1α levels. These assays are performed on the same supernatant (200 μL) by carrying out a series dilution (by 1.5 to assay MIP3α and IL8, then by 2 to assay IL1). […]

The test system of data set [12] is human volunteers. Conditions: in vivo.
Data set [13] deals with animals. The note with it: in vivo.

`CC/C=C\C[C@H]1C(=O)CC[C@@H]1CC(=O)O` [Jasmonic Acid]: in data set [1], the “HBD2 expression, percentage of the positive control (TNFα)” value is 7%. In addition, the “HBD3 expression, percentage of the positive control (IFNγ)” value in data set [2] was determined as 0%. The results for the “hBD2 expression, percentage of the control” value in data set [3] (conc. 100 μg/mL) and in data set [3] (conc. 500 μg/mL) were 86% and 134%, respectively. In addition, the IL1α level in data set [4] (conc. 100 μg/mL) was 31.2 pg/mL/RNA concentration (in ng/μL); in [4] (conc. 500 μg/mL) it was 97.1 pg/mL/RNA concentration (in ng/μL). Moreover, the values for the IL8 level in data set [5] (conc. 100 μg/mL), in data set [5] (conc. 500 μg/mL) and in data set [8] were 37.9 pg/mL/RNA concentration (in ng/μL), 103.3 pg/mL/RNA concentration (in ng/μL) and 25.3 pg/mL/RNA concentration (in ng/μL), respectively. The values for the MIP3α level in data set [6] (conc. 100 μg/mL), in data set [6] (conc. 500 μg/mL) and in data set [10] were 4.6 pg/mL/RNA concentration (in ng/μL), 13.6 pg/mL/RNA concentration (in ng/μL) and 6 pg/mL/RNA concentration (in ng/μL), respectively. Further, the “satisfying the criteria for the first step (in words)” value in data set [7] was “stimulate hBD2 and/or hBD3 without triggering the expression of MIP3 and IL8 cytokines”. Besides, the “hBD3 expression, percentage of the control” value was found to be 477% in [9] (conc. 100 μg/mL) and 26919% in [9] (conc. 500 μg/mL). Also, in data set [11] (jasmonic acid 100 μg/mL, α-MSH as in Table III), the “induction of defensins 2 and/or 3 (in words)” value was “capable of inducing defensins 2 and/or 3”. In data set [11] (second step), the “satisfying the criteria of the invention (in words)” value was “stimulate hBD2 and/or hBD3 without triggering the expression of MIP3, IL8 or IL1 cytokines”.
As to `CC1=C(/C=C/C(C)=C/C=C/C(C)=C/CO)C(C)(C)CCC1` [Retinol], in data set [3] (0.01%), the “effect on hBD2 (in words)” value was “weakly stimulates hBD2”. Moreover, the “hBD2 expression, percentage of the control” value in [3] (conc. 0.01%) is given as 168%. The “irritation / allergy, irritant or sensitizing potential (in words)” value in data set [12] is “not inducing any inflammatory, irritation or intolerance reaction”. For the same molecule, the “effect on hBD3 (in words)” value in data set [9] (0.01%) is “strongly stimulates hBD3”. For the same molecule, in data set [9] (conc. 0.01%), the “hBD3 expression, percentage of the control” value is reported as 17 562%. Further, the “irritation / allergy, primary skin irritation (in words)” value in data set [13] is recorded as “not inducing any inflammatory, irritation or intolerance reaction”.
